Experimental data: the NIST ThermoML archive (doi:10.1016/j.jct.2018.07.015)

Experiment: mn = molality of the nth substance listed, in mol/kg
Details: 100 kPa, Liquid; for speed of sound: Frequency=3 MHz, Single path-length method; for mass density: Vibrating tube method

OCC(O)CO [glycerol] + O
Details	mass density, 293.15 K [kg/m3]	mass density, 298.15 K [kg/m3]	mass density, 303.15 K [kg/m3]	mass density, 308.15 K [kg/m3]	speed of sound, 293.15 K [m/s]	speed of sound, 298.15 K [m/s]	speed of sound, 303.15 K [m/s]	speed of sound, 308.15 K [m/s]
m1 = 0.01	998.452	997.308	995.869	994.253	1483.2	1497	1509.3	1519.9
m1 = 0.03	998.865	997.707	996.304	994.684	1484	1497.8	1510	1520.6
m1 = 0.05	999.29	998.124	996.72	995.094	1484.8	1498.6	1510.7	1521.2
m1 = 0.07	999.691	998.513	997.109	995.469	1485.5	1499.3	1511.4	1521.8

O [water] + OCC(O)CO
m2 = 0
Details	speed of sound [m/s]
298.15 K	1495.8
308.15 K	1519.1
